Results from ChEMBL document CHEMBL1142200, “Efficacy of delayed treatment with ST-246 given orally against systemic orthopoxvirus infections in mice” (Antimicrob Agents Chemother, 2007).
Activity calls are given as the source filed them.

Tests used:
Mus musculus [1] = experiment: Effect on mortality of A/NCr mouse inoculated with 4.1 PFU ectromelia virus at 100 mg/kg after 4 hrs of viral infection, po twice daily for 14 days; type: functional
Ectromelia virus [2] = experiment: Reduction of Ectromelia virus replication in BALB/c mouse esophagus at 100 mg/kg, po once daily after 8 days; type: functional, organism-based; design: dose 100 mg/kg
Mus musculus [3] = experiment: Effect on mortality of BALB/c mouse inoculated with Vaccinia virus WR at 50 mg/kg after 24 hrs of viral infection, po for 9 days; type: functional, organism-based; design: dose 50 mg/kg
Mus musculus [4] = experiment: Effect on mortality of A/NCr mouse inoculated with ectromelia virus at 100 mg/kg after 48 hrs of viral infection, po once daily for 10 days relative control; type: functional
Ectromelia virus [5] = experiment: Reduction of Ectromelia virus replication in BALB/c mouse esophagus at 100 mg/kg, po once daily after 14 days; type: functional, organism-based; design: dose 100 mg/kg
Mus musculus [6] = experiment: Effect on mortality of BALB/c mouse inoculated with Cowpox virus at 10 mg/kg after 48 hrs of viral infection, po once daily for 14 days relative to control; type: functional
Ectromelia virus [7] = experiment: Reduction of Ectromelia virus replication in BALB/c mouse spleen at 100 mg/kg, po once daily after 4 days; type: functional, organism-based; design: dose 100 mg/kg
Ectromelia virus [8] = experiment: Reduction of Ectromelia virus replication in BALB/c mouse trachea at 100 mg/kg, po once daily after 4 days; type: functional, organism-based; design: dose 100 mg/kg
Vaccinia virus [9] = experiment: Reduction of Vaccinia virus WR replication in BALB/c mouse lung at 50 mg/kg after 24 hrs of viral infection, po for 9 days; type: functional, organism-based; design: dose 50 mg/kg; settings: Orthopoxvirus vaccinia
Ectromelia virus [10] = experiment: Reduction of Ectromelia virus replication in BALB/c mouse liver at 100 mg/kg, po once daily after 4 days; type: functional, organism-based; design: dose 100 mg/kg
Mus musculus [11] = experiment: Effect on mortality of BALB/c mouse inoculated with Vaccinia virus WR at 100 mg/kg after 4 hrs of viral infection, po once daily for 5 days relative to control; type: functional
Mus musculus [12] = experiment: Effect on mortality of BALB/c mouse inoculated with Vaccinia virus WR at 100 mg/kg after 24 hrs of viral infection, po once daily for 5 days relative to control; type: functional
Mus musculus [13] = experiment: Effect on mortality of BALB/c mouse inoculated with Cowpox virus at 30 mg/kg after 4 hrs of viral infection, po once daily for 14 days relative to control; type: functional
Mus musculus [14] = experiment: Effect on mortality of BALB/c mouse inoculated with Cowpox virus at 30 mg/kg after 24 hrs of viral infection, po once daily for 14 days relative to control; type: functional
Mus musculus [15] = experiment: Effect on mortality of A/NCr mouse inoculated with ectromelia virus at 100 mg/kg after 72 hrs of viral infection, po once daily for 10 days relative control; type: functional
Mus musculus [16] = experiment: Effect on mortality of BALB/c mouse inoculated with Cowpox virus at 100 mg/kg after 48 hrs of viral infection, po once daily for 14 days relative to control; type: functional
Mus musculus [17] = experiment: Effect on mortality of BALB/c mouse inoculated with Cowpox virus BR at 100 mg/kg after 24 hrs of viral infection, po once daily for 14 days relative to control; type: functional
Mus musculus [18] = experiment: Effect on mortality of BALB/c mouse inoculated with Cowpox virus at 10 mg/kg after 72 hrs of viral infection, po once daily for 14 days relative to control; type: functional
Cowpox virus [19] = experiment: Reduction of Cowpox virus BR replication in BALB/c mouse spleen at 50 mg/kg after 24 hrs of viral infection, po for 9 days; type: functional, organism-based; design: dose 50 mg/kg
Ectromelia virus [20] = experiment: Reduction of Ectromelia virus replication in BALB/c mouse spleen at 100 mg/kg, po once daily after 8 days; type: functional, organism-based; design: dose 100 mg/kg
Ectromelia virus [21] = experiment: Reduction of Ectromelia virus replication in BALB/c mouse esophagus at 100 mg/kg, po once daily after 4 days; type: functional, organism-based; design: dose 100 mg/kg
Mus musculus [22] = experiment: Effect on mortality of BALB/c mouse inoculated with Cowpox virus at 10 mg/kg after 24 hrs of viral infection, po once daily for 14 days relative to control; type: functional
Mus musculus [23] = experiment: Effect on mortality of BALB/c mouse inoculated with Cowpox virus BR at 100 mg/kg after 24 hrs of viral infection, po once daily for 5 days relative to control; type: functional
Ectromelia virus [24] = experiment: Reduction of Ectromelia virus replication in BALB/c mouse spleen at 100 mg/kg, po once daily after 14 days; type: functional, organism-based; design: dose 100 mg/kg
Mus musculus [25] = experiment: Effect on mortality of BALB/c mouse inoculated with Cowpox virus BR at 100 mg/kg after 4 hrs of viral infection, po once daily for 14 days relative to control; type: functional
Mus musculus [26] = experiment: Effect on mortality of BALB/c mouse inoculated with Vaccinia virus WR at 100 mg/kg after 4 hrs of viral infection, po once daily for 14 days relative to control; type: functional
Ectromelia virus [27] = experiment: Reduction of Ectromelia virus replication in BALB/c mouse nasal wash at 100 mg/kg, po once daily after 14 days; type: functional, organism-based; design: dose 100 mg/kg
Mus musculus [28] = experiment: Effect on mortality of BALB/c mouse inoculated with Cowpox virus at 30 mg/kg after 48 hrs of viral infection, po once daily for 14 days relative to control; type: functional
Mus musculus [29] = experiment: Effect on mortality of BALB/c mouse inoculated with Cowpox virus at 100 mg/kg after 24 hrs of viral infection, po once daily for 14 days relative to control; type: functional
Cowpox virus [30] = experiment: Reduction of Cowpox virus BR replication in BALB/c mouse lung at 50 mg/kg after 24 hrs of viral infection, po for 9 days; type: functional, organism-based; design: dose 50 mg/kg
Mus musculus [31] = experiment: Effect on mortality of BALB/c mouse inoculated with Cowpox virus at 100 mg/kg after 72 hrs of viral infection, po once daily for 14 days relative to control; type: functional
Mus musculus [32] = experiment: Effect on mortality of A/NCr mouse inoculated with 410 PFU ectromelia virus at 100 mg/kg after 24 hrs of viral infection, po twice daily for 14 days; type: functional
Ectromelia virus [33] = experiment: Reduction of Ectromelia virus replication in BALB/c mouse nasal wash at 100 mg/kg, po once daily after 8 days; type: functional, organism-based; design: dose 100 mg/kg
Vaccinia virus [34] = experiment: Reduction of Vaccinia virus WR replication in BALB/c mouse spleen at 50 mg/kg after 24 hrs of viral infection, po for 9 days; type: functional, organism-based; design: dose 50 mg/kg; settings: Orthopoxvirus vaccinia
Ectromelia virus [35] = experiment: Reduction of Ectromelia virus replication in BALB/c mouse lung at 100 mg/kg, po once daily after 6 days; type: functional, organism-based; design: dose 100 mg/kg
[36] = Cytotoxicity against HFF cells; type: cell-based; settings: human
Ectromelia virus [37] = experiment: Reduction of Ectromelia virus replication in BALB/c mouse trachea at 100 mg/kg, po once daily after 8 days; type: functional, organism-based; design: dose 100 mg/kg
Mus musculus [38] = experiment: Effect on mortality of BALB/c mouse inoculated with Vaccinia virus WR at 100 mg/kg after 4 hrs of viral infection, po once daily for 7 days relative to control; type: functional
Mus musculus [39] = experiment: Effect on mortality of BALB/c mouse inoculated with Cowpox virus BR at 100 mg/kg after 4 hrs of viral infection, po once daily for 10 days relative to control; type: functional
Mus musculus [40] = experiment: Effect on mortality of BALB/c mouse inoculated with Vaccinia virus WR at 100 mg/kg after 24 hrs of viral infection, po once daily for 14 days relative to control; type: functional
Vaccinia virus [41] = experiment: Reduction of Vaccinia virus WR replication in BALB/c mouse liver at 50 mg/kg after 24 hrs of viral infection, po for 9 days; type: functional, organism-based; design: dose 50 mg/kg; settings: Orthopoxvirus vaccinia

O=C(NN1C(=O)[C@@H]2[C@@H]3C=C[C@@H]([C@H]4C[C@@H]34)[C@@H]2C1=O)c1ccc(C(F)(F)F)cc1 [TECOVIRIMAT]
13%: Activity (Mus musculus [6]) | Activity (Mus musculus [11])
73%: Activity (Mus musculus [22]) | Activity (Mus musculus [23])
> 100 µM: CC50 [36]
active: Activity (Ectromelia virus [2]) | Activity (Mus musculus [3]) | Activity (Ectromelia virus [5]) | Activity (Ectromelia virus [7]) | Activity (Ectromelia virus [8]) | Activity (Vaccinia virus [9]) | Activity (Ectromelia virus [10]) | Activity (Cowpox virus [19]) | Activity (Ectromelia virus [20]) | Activity (Ectromelia virus [21]) | Activity (Ectromelia virus [24]) | Activity (Ectromelia virus [27]) | Activity (Cowpox virus [30]) | Activity (Vaccinia virus [34]) | Activity (Ectromelia virus [35]) | Activity (Ectromelia virus [37]) | Activity (Vaccinia virus [41])
27%: Activity (Mus musculus [29]) | Activity (Mus musculus [39])
50%: Activity (Mus musculus [13])
47%: Activity (Mus musculus [18])
inactive: Activity (Ectromelia virus [33])
20%: Activity (Mus musculus [26]) | Activity (Mus musculus [28]) | Activity (Mus musculus [38])
7%: Activity (Mus musculus [12]) | Activity (Mus musculus [16]) | Activity (Mus musculus [25]) | Activity (Mus musculus [40])
40%: Activity (Mus musculus [14]) | Activity (Mus musculus [31])
0%: Activity (Mus musculus [1]) | Activity (Mus musculus [4]) | Activity (Mus musculus [15]) | Activity (Mus musculus [17]) | Activity (Mus musculus [32])
